Patent US12552825B2 (Zikani Therapeutics, Inc., priority 2019, dated 2026)
In brackets after ≈: the same amount, converted by molar mass.

Assays:
Type in all cases: cell-based
E. coli MP-4 = assay: MIC determination by CLSI broth dilution, E. coli MP-4; conditions: strain MP-4; for MIC: Escherichia coli, MP4, CLSI broth dilution
K. pneumoniae MP-546 = assay: MIC determination by CLSI broth dilution, K. pneumoniae MP-546; conditions: strain MP-546; for MIC: Klebsiella pneumoniae, MP546, CLSI broth dilution
P. aeruginosa MP-3 = assay: MIC determination by CLSI broth dilution, P. aeruginosa MP-3; conditions: Pseudomonas aeruginosa, MP3, strain MP-3
A. baumannii MP-15 = assay: MIC determination by CLSI broth dilution, A. baumannii MP-15; conditions: Acinetobacter baumannii, MP15, strain MP-15, read-out: MIC A. baumanii MP-15
K. pneumoniae MP-648 = assay: MIC determination by CLSI broth dilution, K. pneumoniae MP-648; conditions: strain MP-648; for MIC: Klebsiella pneumoniae, MP648, CLSI broth dilution
S. aureus MP-12 = assay: microbe, parasite or virus in culture; conditions: Staphylococcus aureus, MP12, read-out: MIC S. aureus MP-12

SMILES | MIC (E. coli MP-4) | MIC (K. pneumoniae MP-546) | MIC (P. aeruginosa MP-3) | MIC (A. baumannii MP-15) | MIC (K. pneumoniae MP-648) | MIC (S. aureus MP-12) | MIC E. coli MP-4 (E. coli MP-4; CLSI broth dilution) | MIC K. pneumoniae MP-546 (K. pneumoniae MP-546; CLSI broth dilution) | MIC K. pneumoniae MP-648 (K. pneumoniae MP-648; CLSI broth dilution)
CCCN1C[C@H](C)C[C@@](C)(OC)[C@H](O[C@@H]2O[C@H](C)C[C@H](N(C)C)[C@H]2O)[C@@H](C)C(=O)C(C)(C)C(=O)OC[C@@H]1CCCN(C)C(C)C [Compound 18, (3S,6R,8R,9R,10R)-9-(((2S,3R,4S,6R)-4-(dimethylamino)-3-hydroxy-6-methyltetrahydro-2H-pyran-2-yl)oxy)-3-(3-(isopropyl(methyl)amino)propyl)-8-methoxy-6,8,10,12,12-pentamethyl-4-propyl-1-oxa-4-azacyclotridecane-11,13-dione] | < 4 µg/mL | < 4 µg/mL | > 32 µg/mL | > 32 µg/mL | < 4 µg/mL | < 4 µg/mL | – | – | –
CCCN1C[C@H](C)C[C@@](C)(OC)[C@H](O[C@@H]2O[C@H](C)C[C@H](N(C)C)[C@H]2O)[C@@H](C)C(=O)C(C)(C)C(=O)OC[C@H]1CCCN(C)C [Compound 21, (3R,6R,8R,9R,10R)-9-(((2S,3R,4S,6R)-4-(dimethylamino)-3-hydroxy-6-methyltetrahydro-2H-pyran-2-yl)oxy)-3-(3-(dimethylamino)propyl)-8-methoxy-6,8,10,12,12-pentamethyl-4-propyl-1-oxa-4-azacyclotridecane-11,13-dione] | < 4 µg/mL | < 4 µg/mL | < 4 µg/mL | > 32 µg/mL | < 4 µg/mL | 4 to 32 µg/mL (≈ 6.52 to 52.1 µM) | – | – | –
CCCCCCCN1CCC([C@@H](O)[C@H]2COC(=O)C(C)(C)C(=O)[C@H](C)[C@@H](O[C@@H]3O[C@H](C)C[C@H](N(C)C)[C@H]3O)[C@](C)(OC)C[C@@H](C)CN2C)CC1 [Compound 22] | < 4 µg/mL | 4 to 32 µg/mL (≈ 5.62 to 44.9 µM) | > 32 µg/mL | > 32 µg/mL | > 32 µg/mL | > 32 µg/mL | – | – | –
CO[C@]1(C)C[C@@H](C)CN(C)[C@@H]([C@H](O)C2CCN(CC3CC3)CC2)COC(=O)C(C)(C)C(=O)[C@H](C)[C@H]1O[C@@H]1O[C@H](C)C[C@H](N(C)C)[C@H]1O [Compound 23, (3R,6R,8R,9R,10R)-3-((R)-(1-(cyclopropylmethyl)piperidin-4-yl)(hydroxy)methyl)-9-(((2S,3R,4S,6R)-4-(dimethylamino)-3-hydroxy-6-methyltetrahydro-2H-pyran-2-yl)oxy)-8-methoxy-4,6,8,10,12,12-hexamethyl-1-oxa-4-azacyclotridecane-11,13-dione] | 4 to 32 µg/mL (≈ 5.99 to 47.9 µM) | 4 to 32 µg/mL (≈ 5.99 to 47.9 µM) | > 32 µg/mL | > 32 µg/mL | 4 to 32 µg/mL (≈ 5.99 to 47.9 µM) | 4 to 32 µg/mL (≈ 5.99 to 47.9 µM) | – | – | –
CCCN1CCC([C@@H](O)[C@H]2COC(=O)C(C)(C)C(=O)[C@H](C)[C@@H](O[C@@H]3O[C@H](C)C[C@H](N(C)C)[C@H]3O)[C@](C)(OC)C[C@@H](C)CN2C)CC1 [Compound 24] | 4 to 32 µg/mL (≈ 6.1 to 48.8 µM) | 4 to 32 µg/mL (≈ 6.1 to 48.8 µM) | > 32 µg/mL | > 32 µg/mL | > 32 µg/mL | 4 to 32 µg/mL (≈ 6.1 to 48.8 µM) | – | – | –
CO[C@]1(C)C[C@@H](C)CN(C)[C@@H]([C@H](O)C2CCN(CC3CCCCC3)CC2)COC(=O)C(C)(C)C(=O)[C@H](C)[C@H]1O[C@@H]1O[C@H](C)C[C@H](N(C)C)[C@H]1O [Compound 25] | < 4 µg/mL | 4 to 32 µg/mL (≈ 5.63 to 45.1 µM) | > 32 µg/mL | > 32 µg/mL | 4 to 32 µg/mL (≈ 5.63 to 45.1 µM) | > 32 µg/mL | – | – | –
CO[C@]1(C)C[C@@H](C)CN(C)[C@H]([C@@H](O)C2CCN(CC3CC3)CC2)COC(=O)C(C)(C)C(=O)[C@H](C)[C@H]1O[C@@H]1O[C@H](C)C[C@H](N(C)C)[C@H]1O [Compound 26] | – | – | > 32 µg/mL | > 32 µg/mL | – | > 32 µg/mL | +++ (values less than or equal to 4 mg/L) | ++ (values of greater than 4 mg/L and less than or equal to 32 mg/L) | ++ (values of greater than 4 mg/L and less than or equal to 32 mg/L)
CO[C@]1(C)C[C@@H](C)CN(C)[C@H]([C@@H](O)C2CCN(C(C)C)CC2)COC(=O)C(C)(C)C(=O)[C@H](C)[C@H]1O[C@@H]1O[C@H](C)C[C@H](N(C)C)[C@H]1O [Compound 27] | 4 to 32 µg/mL (≈ 6.1 to 48.8 µM) | 4 to 32 µg/mL (≈ 6.1 to 48.8 µM) | > 32 µg/mL | > 32 µg/mL | > 32 µg/mL | > 32 µg/mL | – | – | –
COCO[C@@H](C1CCN(CC2CC2)CC1)[C@@H]1COC(=O)C(C)(C)C(=O)[C@H](C)[C@@H](O[C@@H]2O[C@H](C)C[C@H](N(C)C)[C@H]2O)[C@](C)(OC)C[C@@H](C)CN1C [Compound 29] | 4 to 32 µg/mL (≈ 5.62 to 44.9 µM) | > 32 µg/mL | > 32 µg/mL | > 32 µg/mL | > 32 µg/mL | 4 to 32 µg/mL (≈ 5.62 to 44.9 µM) | – | – | –
COCCCN1CCC(C[C@@H]2COC(=O)C(C)(C)C(=O)[C@H](C)[C@@H](O[C@@H]3O[C@H](C)C[C@H](N(C)C)[C@H]3O)[C@](C)(OC)C[C@@H](C)CN2C)CC1 [Compound 50] | < 4 µg/mL | < 4 µg/mL | > 32 µg/mL | > 32 µg/mL | < 4 µg/mL | 4 to 32 µg/mL (≈ 5.97 to 47.8 µM) | – | – | –
CO[C@]1(C)C[C@@H](C)CN(C)[C@H](CC2CCNCC2)COC(=O)C(C)(C)C(=O)[C@H](C)[C@H]1O[C@@H]1O[C@H](C)C[C@H](N(C)C)[C@H]1O [Compound 51] | 4 to 32 µg/mL (≈ 6.69 to 53.5 µM) | > 32 µg/mL | > 32 µg/mL | > 32 µg/mL | > 32 µg/mL | > 32 µg/mL | – | – | –
CO[C@]1(C)C[C@@H](C)CN(C)[C@H](CC2CCN(C(C)C)CC2)COC(=O)C(C)(C)C(=O)[C@H](C)[C@H]1O[C@@H]1O[C@H](C)C[C@H](N(C)C)[C@H]1O [Compound 52] | < 4 µg/mL | < 4 µg/mL | > 32 µg/mL | > 32 µg/mL | 4 to 32 µg/mL (≈ 6.25 to 50 µM) | 4 to 32 µg/mL (≈ 6.25 to 50 µM) | – | – | –
CCC(CCNCC(C)C)C[C@@H]1COC(=O)C(C)(C)C(=O)[C@H](C)[C@@H](O[C@@H]2O[C@H](C)C[C@H](N(C)C)[C@H]2O)[C@](C)(OC)C[C@@H](C)CN1C (stereo partly drawn) [Compound 53] | < 4 µg/mL | < 4 µg/mL | > 32 µg/mL | > 32 µg/mL | < 4 µg/mL | 4 to 32 µg/mL (≈ 6.1 to 48.8 µM) | – | – | –
CO[C@]1(C)C[C@@H](C)CN(C)[C@H](CC2CCN(CC3CCCCC3)CC2)COC(=O)C(C)(C)C(=O)[C@H](C)[C@H]1O[C@@H]1O[C@H](C)C[C@H](N(C)C)[C@H]1O [Compound 55] | < 4 µg/mL | < 4 µg/mL | > 32 µg/mL | > 32 µg/mL | < 4 µg/mL | 4 to 32 µg/mL (≈ 5.76 to 46.1 µM) | – | – | –
CCCCCCCN1CCC(C[C@@H]2COC(=O)C(C)(C)C(=O)[C@H](C)[C@@H](O[C@@H]3O[C@H](C)C[C@H](N(C)C)[C@H]3O)[C@](C)(OC)C[C@@H](C)CN2C)CC1 [Compound 56] | < 4 µg/mL | < 4 µg/mL | > 32 µg/mL | > 32 µg/mL | < 4 µg/mL | 4 to 32 µg/mL (≈ 5.75 to 46 µM) | – | – | –
CO[C@]1(C)C[C@@H](C)CN(C)[C@H](CC2CCN(CC3CC3)CC2)COC(=O)C(C)(C)C(=O)[C@H](C)[C@H]1O[C@@H]1O[C@H](C)C[C@H](N(C)C)[C@H]1O [Compound 57] | < 4 µg/mL | < 4 µg/mL | > 32 µg/mL | > 32 µg/mL | < 4 µg/mL | 4 to 32 µg/mL (≈ 6.14 to 49.1 µM) | – | – | –
CCC(CC)CN1CCC(C[C@@H]2COC(=O)C(C)(C)C(=O)[C@H](C)[C@@H](O[C@@H]3O[C@H](C)C[C@H](N(C)C)[C@H]3O)[C@](C)(OC)C[C@@H](C)CN2C)CC1 [Compound 58] | < 4 µg/mL | < 4 µg/mL | > 32 µg/mL | > 32 µg/mL | < 4 µg/mL | 4 to 32 µg/mL (≈ 5.87 to 46.9 µM) | – | – | –
